Data on one molecule can be found in PubChem BioAssay (NCI).

Test systems include CCRF-CEM leukemia; HL-60(TB) leukemia; NCI-H226 lung.
Common to all, as to test: NCI tumour cell line growth inhibition, 48 h

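Exposure lasted 48 hours, with cells grown in 96-well plates and compounds tested at five concentrations. TGI is the concentration that stops growth completely.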

Turning to `Oc1c(Cl)c(Cl)c(Cl)c(Cl)c1Cl`, the TGI in the test with CCRF-CEM leukemia stood at 48.3 µM; in the test on HL-60(TB) leukemia, 36.9 µM; in the test on NCI-H226 lung it was 56.9 µM.
